Results reported in PMC10526274, “Epithelial-Immune Cell Crosstalk Determines the Activation of Immune Cells In Vitro by the Human Cathelicidin LL-37 at Low Physiological Concentrations” (Biomolecules, 2023).

What was measured:
[1] = system: human PBMCs; conditions: LL-37 at 5 μg/mL; cited from earlier work
Method: In contrast to the chemotactic potential of LL-37, available data on its ability to induce cytokine production by different cells argue for the absence of its biological activity at low physiological concentrations of ∼5 μg/mL observed in non-inflamed tissues. […] In the current study, we used LL-37 at a concentration of 1 μM (4.5 μg/mL) to study whether this peptide had immunomodulatory activity under non-inflamed physiological conditions. In ou ...

[2] = system: monocytes in Caco-2/Monocytes co-culture; test: Multiplex phosphoprotein signaling in monocyte lysates, Caco-2/monocytes co-culture + LL-37; type: cell-based, human; conditions: monocyte lysate, 1 µM LL-37, 2 h, mean MFI normalized to β-tubulin
Method: Primary blood monocytes were isolated from PBMCs by plastic adhesion in the wells of a 24-well plate 24 h prior to the experiment. For that, 2 × 10^6 PBMC were seeded in each well in 2 mL of RPMI-1640 without supplements and kept for 1 h in a humidified CO2-incubator (5% CO2, 37 °C). Then, the adhered monocytes were thoroughly washed 3 times with the culture medium without supplements, and 600 µL of the complete RPMI-1640, supplemented with 10% Human AB serum, was added into each well. Then, 24 h later, the medium in the wells of a 24-well plate was replaced by a fresh medium with or without 1 µM of LL-37, and the permeable inserts with Caco-2 monolayers with TEER > 400 Ω × cm^2, containing 400 μL of the complete medium in their apical chamber, were immediately placed into the appropriate wells for 2 h. Then, 2 h later, the culture medium and the inserts were carefully removed, and the cells in each well were washed with PBS and lysed in 100 µL of MILLIPLEX MAP Lysis Buffer (cat. #43-040, Merck, Darmstadt, Germany), containing phosphatase inhibitors including 1 mM sodium orthovanadate (Na3VO4). To prevent protein degradation, a protease inhibitor cocktail (cat. #535140, Merck) was freshly added to the MILLIPLEX MAP Lysis Buffer. Cell lysate preparation was performed in accordance with the manufacturer’s instructions.
The phosphorylation of the following key cell signaling kinases and transcription factors was measured in cell lysates by using the MILLIPLEX multi-pathway magnetic bead 9-plex kit (#48-680MAG, Merck), containing phosphorylation state-specific antibodies: ERK/MAP kinase 1/2 (Thr185/Tyr187), Akt (Ser473), STAT3 (Ser727), JNK (Thr183/Tyr185), p70S6 kinase (Thr412), NF-κB (Ser536), STAT5A/B (Tyr694/699), CREB (Ser133), and p38 (Thr180/Tyr182). β-Tubulin MAPmate magnetic beads (#46-713MAG, Merck) were used as an assay normalization control to normalize the total protein level between the samples. A multiplex assay was carried out in accordance with the manufacturer’s instructions with overnight incubation of the samples with primary antibodies to phosphorylated signaling proteins on the MAGPIX system (Merck) using the xPONENT 4.2 software (Merck). The final analysis of the acquired fluorescence data was performed with the MILLIPLEX Analyst v5.1 software (Merck). Normalized MFI values were compared with an unpaired two-sample t-test using GraphPad Prism v.8.0.1 (GraphPad Software). The p-values ≤ 0.05 were considered significant.

LL-37: the only human cathelicidin, host defense antimicrobial peptide of 37 a.a. residues, produced by solid-phase peptide synthesis
Production of TNFα or IL-10 in human PBMCs [1]: not able to increase the production of TNFα or IL-10
phosphorylated STAT3 ([2]; control 0.06): 0.06 MFI
phosphorylated NF-kB ([2]; control 0.09): 0.09 MFI
phosphorylated STAT5 ([2]; control 0.09): 0.09 MFI
phosphorylated JNK ([2]; control 48.84): 176.7 MFI
phosphorylated p70S6K ([2]; control 472.48): 902.08 MFI
phosphorylated Akt ([2]; control 2712): 2358 MFI
phosphorylated ERK 1/2 ([2]; control 5812): 11464 MFI
phosphorylated p38 ([2]; control 17697): 21951 MFI
phosphorylated CREB ([2]; control 81479): 106317 MFI
